Source: patent publication US10660910B2, “Use of sedoheptulose for prevention or treatment of inflammation” (C7 SUGAR GMBH, priority 2013, dated 2020)

Tests used:
Format in all cases: cell-based, mouse
[1] = system: osteoclasts; assay: In vitro bone resorption assay
Procedure: Mouse bones were isolated from male wild-type and CARKL overexpressing mice and bone marrow wash flushed, washed and cleared from redblood cells by lysis, and subsequently differentiated in DMEM containing 25 mM glucose and 20 ng/ml M-CSF. After 4 days, cells for osteoclast differentiation were harvested and seeded in corning osteo assay plates with differentiation media (see below), and for primary bone marrow derived macrophages (BMDM) the medium was renewed and further supplemented with M-SCF for two days. Differentiated BMDM were then seeded in respective DMEM-media containing 10% FBS and indicated carbohydrate mixes at 3 g/L (glucose and fructose (GF), or glucose, fructose and sedoheptulose (GFS)) at least two days before experiments were performed. Osteoclast precursor cells (bone marrow cells treated with 20 ng/ml M-CSF for 4 days) were plated in 24-well Corning Osteo Assay plate in the presence of 10 ng/ml M-CSF and 100 ng/ml RANKL in alpha-MEM medium containing 10% FBS and 3 g/L either glucose and fructose (GF), or glucose, fructose, and sedoheptulose (GFS). The Medium was renewed every third day. […] Each well was entirely photographed by TissueFax with an ×20 objective and all visible resorption pits were counted and analysed blinded.

[2] = system: LPS-induced activated primary macrophages; assay: LPS-induced cytokine secretion by bone marrow derived macrophages (ELISA); settings: LPS 100 ng/ml, GFS vs GF media
Procedure: FIG. 3: (A-E) Primary human adipocytes were obtained by differentiation of the stromal vascular cell fraction in the presence of glucose and fructose (GF, 1.5 g/L of each sugar; total carbohydrates 3 g/L) or sedoheptulose supplemented media, which was termed GFS (1 g/L of each sugar; total carbohydrates 3 g/L), for eight days. Subsequently mRNA levels of (A) CARKL, (B) adiponectin and (C) uncoupling protein 1 (UCP-1) was assessed by RT-PCR and compared between the groups. (D) Cellular oxygen consumption rates (OCR) and (E) extracellular acidification rates (ECAR) of adipocytes were recorded in the presence of indicated carbohydrate-mix (mean+/−S.D., n=9-11). […] Secretion of (K) TNFa and (L) IL-6 cytokines over the period of two days was measured by ELISA in the supernatant of bone marrow derived macrophages. LPS-induced (100 ng/ml) secretion of (M) TNFa 2 hrs after activation and (N) IL-6 6 hrs after activation in the respective media by macrophages was also measured by ELISA. […]

[3] = system: WT hepatocytes; assay: Glucose-induced ECAR in hepatocytes; settings: WT hepatocytes in GFS vs GF media, 1 hr carbohydrate starvation, then glucose 1 g/L, FIG. 4E
Procedure: Hepatocytes were isolated from male wild-type and CARKL overexpressing mice after the mice were sacrificed by hepatic in situ collagenase perfusion. After perfusion, the liver was quickly removed, minced, and filtered through a cell strainer (Fisher Scientific, Inc) into a 50 ml sterile tube. Hepatocytes in the resulting filtrate were purified from the nonparenchymal cells by centrifugation steps. The isolated hepatocytes were seeded into plates at a concentration of 0.25×10^6/ml in respective DMEM-media containing 10% FBS and indicated carbohydrate mixes at 3 g/L (glucose and fructose (GF), or glucose, fructose and sedoheptulose (GFS)) at least two days before experiments were performed.
The XF-Analyzer (Seahorse Bio.) was used to measure changes in cellular metabolism induced by different carbohydrates. Extracellular acidification rates (ECAR, mpH/min) and oxygen consumption rates (OCR, pmoles/min) were recorded in primary human adipocytes and primary murine hepatocytes according to the manufacture instructions. Briefly, cells were seeded in seahorse cell plates at a density of 10^4 cells per well for adipocytes and 0.5×10^5 cells per well for hepatocytes. […] Changes induced by the different carbohydrate sources were expressed as relative change in % to illustrate the effect of each carbon source.

In the case of O=C(CO)[C@@H](O)[C@H](O)[C@H](O)[C@H](O)CO [sedoheptulose, Sedoheptulose], the “pit formation by osteoclasts” value ([1]; 7 days in Corning Osteo Assay plates, GFS vs GF media, FIG. 5C) is reported as “reduced”, the larger resorption-pits ([1]; WT osteoclasts in GF or GFS media, FIG. 5D) is reported as “found only in the absence of sedoheptulose” and the “reduction of LPS-induced TNFa secretion” value ([2]; 2 hrs after activation, FIG. 3M) is reported as “approximately 40%”. For the same molecule, the “LPS-induced IL-6 secretion” value ([2]; 6 hrs after activation, FIG. 3N) was “comparable levels as GF treated macrophages” and the “glucose-induced ECAR” value [3] was “reduced”.
